Read-outs that look alike come from different tables or passages of the source.

Data on 6 compounds can be found in patent US20140065103A1 (VERTEX PHARMACEUTICALS INCORPORATED, priority 2010, published 2014).

The subject of data set [1] is HCV replicon (genotype 1b) in Huh7 hepatoma cell line ET. The experiment in a line: microbe, parasite or virus in culture. As to conditions: read-out: HCV-Replicon-1b_IC50. In kind it is cell-based, Hepatitis C virus.
Data set [2] in a line: [3H]Thymidine incorporation assay (cytotoxicity, CC50). As to conditions: human.
The test system of data set [3] is HCV sub-genomic replicon of genotype 1a in replicon cell line W11.8. The experiment in a line: microbe, parasite or virus in culture. It is filed as cell-based, Hepatitis C virus. To be noted: read-out: HCV-Replicon-ELISA-1a IC50. (In general: In antiviral work, replicon cells carry a viral genome segment that copies itself.)
For data set [4], the system named is Huh-7 ET, Molt-4, DU-145, Hep-G2 and SH-SY5Y cells. The experiment in a line: [3H]Thymidine incorporation assay (cytotoxicity, CC50). As to conditions: [3H]thymidine incorporation; cell line not given. For orientation: Dividing cells build labelled thymidine or BrdU into new DNA.

`CC(C)(C)C#Cc1cc(N(C(=O)c2ccc(Cl)cc2F)[C@H]2CC[C@H](O)CC2)c(C(=O)O)s1` [Compound 91, 3-[(4-Chloro-2-fluoro-benzoyl)-(trans-4-hydroxy-cyclohexyl)-amino]-5-(3,3-dimethyl-but-1-ynyl)-thiophene-2-carboxylic acid]: in data set [1] (Hepatitis C virus, Huh-7, 96 h), the IC50 fell in the range of 100 to 1000 nM. For the same compound, in data set [2], the cytotoxic concentration (CC50) (as a rule, the concentration giving 50% cytotoxicity) at 72 h was 10000 to 100000 nM.
For the compound `CC(C)C#Cc1cc(N(C(=O)[C@H]2CC[C@H](C)CC2)C2CCN(C(=O)CCCCCN)CC2)c(C(=O)O)s1` [Compound 95, 3-((trans-4-Methylcyclohexanecarbonyl)-(1-(6-amino-hexanoyl)-piperidin-4-yl)amino)-5-(3-methylbut-1-ynyl)thiophene-2-carboxylic acid], in data set [1] (Hepatitis C virus, Huh-7, 96 h), the IC50 is 100 to 1000 nM. Moreover, the cytotoxic concentration (CC50) at 72 h in data set [2] lay in the range of 10000 to 100000 nM.
On to “Methyl-5-(3,3-dimethylbut-1-yn-1-yl)-3-(trans-4-methyl-N-(cis-3-((dimethylamino)methyl)cyclobutyl)cyclohexanecarboxamido)thiophene-2 carboxylate [Compound 65]”, for which the IC50 in data set [1] and in data set [3] was less than 100 nM throughout. Moreover, the CC50 in data set [4] lay within 10000 to 100000 nM.
For the compound `CC(C)C#Cc1cc(N(C(=O)[C@H]2CC[C@H](C)CC2)[C@H]2CC[C@H](O)CC2)c(C(=O)O)s1` [Compound 4, 5-(3-methylbut-1-ynyl)-3-[(4-trans-hydroxycyclohexyl)-(4-trans-methylcyclohexanecarbonyl)amino]thiophene-2-carboxylic acid], the IC50 in data set [1] and in data set [3] was less than 100 nM each time. This compound also registered a cytotoxic concentration (CC50) in data set [4] of 10000 to 100000 nM.
Take `CCO[C@H]1CC[C@H](N(c2cc(C#CC(C)(C)C)sc2C(=O)O)C(=O)[C@H]2CC[C@H](C)CC2)CC1` [Compound 35, 5-(3,3-Dimethylbut-1-yn-1-yl)-3-((N-4-trans-ethoxycyclohexyl)-4-trans-methylcyclohexanecarboxamido)thiophene-2-carboxylic acid]: the IC50 was less than 100 nM in data set [1] and 100 to 1000 nM in data set [3]. In data set [4], this compound displayed a CC50 of 10000 to 100000 nM.
As for `CC(C)(C)C#Cc1cc(N(C(=O)[C@H]2CC[C@H](C)CC2)[C@H]2CC[C@H](OC3CC3)CC2)c(C(=O)O)s1` [Compound 38, 5-(3,3-Dimethylbut-1-yn-1-yl)-3-((N-4-trans-cyclopropoxycyclohexyl)-4-trans-methylcyclohexanecarboxamido)thiophene-2-carboxylic acid], the IC50 in data set [1] is less than 100 nM; in data set [3], 100 to 1000 nM. Also, the CC50 in data set [4] was 10000 to 100000 nM.
